Reference: US20250019385A1, “SPIROCYCLIC ANNULATED 2-AMINO-3-CYANO THIOPHENES AND DERIVATIVES FOR THE TREATMENT OF CANCER” (Boehringer Ingelheim International GmbH, priority 2023, published 2025)
In brackets after ≈: the same amount, converted by molar mass. Where two headings read alike, the source gives them in different places.

Tests used:
[1] = system: SK-CO-1 cells; assay: SK-CO-1 CTG proliferation assay (120 h) (CRC, G12V); assay type: cell-based; conditions: Homo sapiens
Procedure: SK—CO-1 cells (ATCC HTB-39) are dispensed into black 384-well plates, flat and clear bottom (Greiner, PNr. 781091) at a density of 500 cells per well in 60 μl EMEM (Sigma M5650)+10% FCS (fetal calf serum, HyClone, SH30084.03). Cells are incubated overnight at 37° C. in a humidified tissue culture incubator at 5% CO2. Compounds (10 mM stock in DMSO) are added at logarithmic dose series using the ECHO acoustic liquid handler system (Beckman Coulter), normalizing for added DMSO and including DMSO controls. All compound treatments are performed in technical duplicates. For the TO time point measurement, untreated cells are analyzed at the time of compound addition. Plates are incubated for 120 h, and cell viability is measured using CellTiter-Glo luminescent cell viability reagent (Promega product code G7570). Viability (stated as percent of control) is defined as relative luminescence units RLU of each well divided by the RLU of cells in DMSO controls. IC50 values are determined from viability measurements by non-linear regression using a four-parameter model.
IC50 values of representative compounds according to the invention measured with these assays in the indicated cell lines are presented in Table 46.

[2] = Solubility measurement (DMSO solution precipitation method); assay type: physicochemical; conditions: aqueous buffer, kinetic from dmso stock
Procedure: A 10 mM DMSO stock solution of a test compound is used to determine its aq. solubility. The DMSO solution is diluted with an aq. medium (McIlvaine buffer with pH=4.5 or 6.8) to a final concentration of 250 μM. After 24 h of shaking at ambient temperature a potentially formed precipitate is removed by filtration. The concentration of the test compound in the filtrate is determined by LC-UV methods by calibrating the signal to the signal of a reference solution with complete dissolution of the test compound in acetonitrile/water (1:1) with known concentration.

[3] = Plasma protein binding assay (PPB), equilibrium dialysis; assay type: in vitro ADME; conditions: bovine, 10% FCS in PBS, read-out: PPB 10% FCS (% fu)
Procedure: Binding of test compounds to plasma was determined using equilibrium dialysis (ED) and quantitative mass spectrometry interfaced with liquid chromatography (LC-MS). In brief, ED was performed with dialysis devices consisting of two chambers separated by a semipermeable membrane with a molecular weight cut-off of 5-10 kg/mol. One chamber was filled with 10% FCS in PBS containing 1-10 μmol/L test compound and the other chamber was filled with phosphate-buffer saline (PBS) with or without dextran. The dialysis chamber was incubated for 3-5 hours at 37° C. After incubation, protein was precipitated from aliquots of each chamber and the concentration of test compound in the supernatant of the plasma-containing compartment (cserum) and of the buffer-containing compartment (cbuffer) was determined by LC-MS. The fraction of unbound test compound (not bound to plasma) (f) was calculated according to the following equation: […]

[4] = McIlvaine buffer pH 4.5, 24 h, read-out: solubility pH 4.5
[5] = McIlvaine buffer pH 6.8, 24 h, read-out: solubility pH 6.8

Row | IC50 [1] [nM] | solubility at 24 h [2, 4] [µg/mL] | solubility at 24 h [2, 5] [µg/mL] | fraction unbound [3] | Compound
1 | 1 | > 142 | 107 (≈ 166 µM) | – | C[C@H](Oc1nc(-c2noc3c2CCC[C@@]32CCCc3sc(N)c(C#N)c32)nc2c1n(C)c(=O)n2[C@H]1CO[C@@H](C)C1)[C@@H]1CCCN1C [II-5]
2 | 2 | > 144 | 62 (≈ 92.2 µM) | 0.07 | CO[C@@H]1C[C@@H]([C@H](C)Oc2nc(-c3noc4c3CCC[C@@]43CCCc4sc(N)c(C#N)c43)nc3c2n(C)c(=O)n3[C@@]23COC[C@@H]2C3)N(C)C1 [II-6]
3 | 6 | > 149 | 114 (≈ 166 µM) | 0.12 | CO[C@@H]1C[C@@H]([C@H](C)Oc2nc(-c3noc4c3CCC[C@@]43CCCc4sc(N)c(C#N)c43)nc3c2CN(C2COC2)C[C@]32CCOC2)N(C)C1 [II-14]
4 | 9 | > 167 | 122 (≈ 177 µM) | 0.24 | CO[C@@H]1C[C@@H]([C@H](C)Oc2nc(-c3onc4c3CCC[C@@]43CCCc4sc(N)c(C#N)c43)nc3c2CN(C2COC2)C[C@]32CCOC2)N(C)C1 [I-58]
5 | 2 | – | – | – | C[C@H](Oc1nc(-c2noc3c2CCC[C@@]32SCCc3sc(N)c(C#N)c32)nc2c1COC[C@]21CCOC1)[C@@H]1CCCN1C [II-16]
6 | – | > 153 | < 1 | 0.06 | CO[C@@H]1C[C@@H]([C@H](C)Oc2nc(-c3onc4c3CCC[C@@]43CCCc4sc(N)c(C#N)c43)nc3c2n(C)c(=O)n3[C@H]2COC[C@@H](C)C2)N(C)C1 [I-52]
7 | 7 | > 167 | 72 (≈ 105 µM) | 0.28 | CO[C@H]1CCN(C)[C@@H]1[C@H](C)Oc1nc(-c2onc3c2CCC[C@@]32CCCc3sc(N)c(C#N)c32)nc2c1CN(C1COC1)C[C@]21CCOC1 [I-57]
8 | – | 124 (≈ 188 µM) | 103 (≈ 156 µM) | 0.09 | C[C@H](Oc1nc(-c2onc3c2CCC[C@@]32CCCc3sc(N)c(C#N)c32)nc2c1n(C)c(=O)n2[C@H]1CO[C@@H](C)C1)[C@@H]1CC[C@H](C)N1C [I-50]
9 | 5 | > 138 | 102 (≈ 152 µM) | 0.1 | C[C@H](Oc1nc(-c2noc3c2CCC[C@@]32CCCc3sc(N)c(C#N)c32)nc2c1CN(C1COC1)C[C@]21CCOC1)[C@@H]1CC[C@H](C)N1C [II-17]
10 | – | > 153 | < 1 | 0.07 | CO[C@H]1CCN(C)[C@@H]1[C@H](C)Oc1nc(-c2onc3c2CCC[C@@]32CCCc3sc(N)c(C#N)c32)nc2c1n(C)c(=O)n2[C@H]1COC[C@@H](C)C1 [I-51]
11 | – | > 132 | 101 (≈ 157 µM) | 0.13 | C[C@H](Oc1nc(-c2onc3c2CCC[C@@]32CCCc3sc(N)c(C#N)c32)nc2c1n(C)c(=O)n2[C@H]1CO[C@@H](C)C1)[C@@H]1CCCN1C [I-47]
12 | 5 | > 152 | > 140 | 0.19 | C[C@H](Oc1nc(-c2noc3c2CCC[C@@]32CCCc3sc(N)c(C#N)c32)nc2c1CN(C1COC1)C[C@]21CCOC1)[C@@H]1CCCN1C [II-12]
13 | 3 | > 151 | 52 (≈ 75.6 µM) | 0.09 | CO[C@H]1CCN(C)[C@@H]1[C@H](C)Oc1nc(-c2noc3c2CCC[C@@]32CCCc3sc(N)c(C#N)c32)nc2c1CN(C1COC1)C[C@]21CCOC1 [II-13]
14 | 4 | > 150 | 67 (≈ 99.6 µM) | 0.32 | CO[C@@H]1C[C@@H]([C@H](C)Oc2nc(-c3onc4c3CCC[C@@]43CCCc4sc(N)c(C#N)c43)nc3c2n(C)c(=O)n3[C@@]23COC[C@@H]2C3)N(C)C1 [I-46]
15 | 4 | > 135 | 85 (≈ 129 µM) | 0.2 | C[C@H](Oc1nc(-c2onc3c2CCC[C@@]32CCCc3sc(N)c(C#N)c32)nc2c1n(C)c(=O)n2[C@@]12COC[C@@H]1C2)[C@@H]1CC[C@H](C)N1C [I-45]
